Measurements: US10253039B2, “Inhibitors of bacterial DNA gyrase with efficacy against gram-negative bacteria” (priority 2014, dated 2019)
Values after ≈ are worked out from the molar mass of the structure shown. Like-named read-outs stand apart in the source and are kept apart here.

Legend:
Assay type in all cases: cell-based
Streptococcus pyogenes = assay: MIC, 20-strain panel
In short: (§1)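 Broth microdilution per CLSI, 2-fold serial dilutions in Luria-Bertani medium with a 1:10000 inoculum from a growing subculture. Plates shaken at 37 °C for 16-18 h; MIC taken as lowest concentration showing no visible turbidity.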

[1] = test system: Staphylococcus epidermidis; assay: MIC, 20-strain panel
In short: as §1

E. coli JW5503 (deltolC) = assay: MIC, 20-strain panel; conditions: Escherichia coli
In short: as §1

[2] = test system: Klebsiella pneumoniae subsp. pneumoniae; assay: MIC, 20-strain panel
In short: as §1

Shigella flexneri = assay: MIC, 20-strain panel
In short: as §1

[3] = test system: Staphylococcus saprophyticus subsp. saprophyticus; assay: MIC, 20-strain panel
In short: as §1

Streptococcus agalactiae = assay: MIC, 20-strain panel
In short: as §1

[4] = test system: Salmonella enterica subsp. enterica typhimurium; assay: MIC, 20-strain panel
In short: as §1

[5] = test system: Staphylococcus aureus subsp. aureus; assay: MIC, 20-strain panel; conditions: read-out: MIC
In short: as §1

E. coli MG1655 = assay: MIC, 20-strain panel; conditions: Escherichia coli, read-out: MIC
In short: as §1

E. coli BW25113 = assay: MIC, microdilution in 96-well plates; conditions: Escherichia coli, read-out: MIC
In short: as §1

Edwardsiella tarda = assay: MIC, microdilution in 96-well plates
In short: as §1

[6] = E: Klebsiella pneumoniae subsp. pneumoniae
[7] = F: Salmonella enterica subsp. enterica Typhimurium
[8] = H: Staphylococcus aureus subsp. aureus
[9] = Klebsiella pneumoniae subsp. pneumoniae
[10] = Salmonella enterica subsp. enterica Typhimurium
[11] = Staphylococcus aureus subsp. aureus

SMILES	MIC (Streptococcus pyogenes)	MIC [1]	MIC (E. coli JW5503 (deltolC); C: E. coli JW5503 (deltolC))	MIC [2, 6]	MIC (Shigella flexneri; G: Shigella flexneri)	MIC [3]	MIC (Streptococcus agalactiae)	MIC [4, 7]	MIC [5, 8]	MIC (E. coli MG1655; MG1655, A: E. coli MG1655)	MIC (E. coli BW25113; BW25113, B: E. coli BW25113)	MIC (Edwardsiella tarda; D: Edwardsiella tarda)	MIC (E. coli JW5503 (deltolC); E. coli JW5503 (deltolC))	MIC [2, 9]	MIC (Shigella flexneri)	MIC [4, 10]	MIC [5, 11]	MIC (E. coli MG1655; MG1655, E. coli MG1655)	MIC (E. coli BW25113; BW25113, E. coli BW25113)	MIC (Edwardsiella tarda)
O=S(=O)(N[C@@H]1CCN(Cc2cn(-c3ccccc3)nn2)C1)c1cccc(C(F)(F)F)c1 [Compound 108]	> 8 µg/mL	> 8 µg/mL	> 8 µg/mL	> 8 µg/mL	> 8 µg/mL	> 8 µg/mL	> 8 µg/mL	> 8 µg/mL	> 8 µg/mL	> 8 µg/mL	> 8 µg/mL	> 8 µg/mL	–	–	–	–	–	–	–	–
O=S(=O)(N[C@@H]1CCN(Cc2ccc(-c3ccccc3Cl)cc2)C1)c1cccc(OC(F)(F)F)c1 [Compound 75]	~8 µg/mL (≈ 15.7 µM)	> 8 µg/mL	~8 µg/mL (≈ 15.7 µM)	> 8 µg/mL	> 8 µg/mL	> 8 µg/mL	> 8 µg/mL	> 8 µg/mL	> 8 µg/mL	> 8 µg/mL	> 8 µg/mL	> 8 µg/mL	–	–	–	–	–	–	–	–
N#Cc1cccc(S(=O)(=O)N[C@@H]2CCN(Cc3ccc(SC(F)(F)F)cc3)C2)c1 [Compound 20]	> 8 µg/mL	> 8 µg/mL	8 µg/mL (≈ 18.1 µM)	> 8 µg/mL	> 8 µg/mL	> 8 µg/mL	> 8 µg/mL	> 8 µg/mL	> 8 µg/mL	> 8 µg/mL	> 8 µg/mL	> 8 µg/mL	–	–	–	–	–	–	–	–
O=S(=O)(N[C@@H]1CCN(Cc2ccc(-c3ccncc3)cc2)C1)c1cccc(OC(F)(F)F)c1 [Compound 15]	> 8 µg/mL	> 8 µg/mL	4 µg/mL (≈ 8.38 µM)	> 8 µg/mL	> 8 µg/mL	> 8 µg/mL	> 8 µg/mL	> 8 µg/mL	> 8 µg/mL	> 8 µg/mL	> 8 µg/mL	> 8 µg/mL	–	–	–	–	–	–	–	–
COc1ccc(-c2ccc(CN3CC[C@@H](NS(=O)(=O)c4cccc(OC(F)(F)F)c4)C3)cc2)cc1 [Compound 74]	> 8 µg/mL	> 8 µg/mL	8 µg/mL (≈ 15.8 µM)	> 8 µg/mL	> 8 µg/mL	> 8 µg/mL	> 8 µg/mL	> 8 µg/mL	> 8 µg/mL	> 8 µg/mL	> 8 µg/mL	> 8 µg/mL	–	–	–	–	–	–	–	–
CC(C)Oc1ccc(CN2CC[C@@H](NS(=O)(=O)c3cc(C(F)(F)F)ccc3Cl)C2)cc1 [Compound 140]	> 8 µg/mL	> 8 µg/mL	–	–	–	> 8 µg/mL	> 8 µg/mL	–	–	–	–	–	< 0.0625 µg/mL	> 8 µg/mL	> 8 µg/mL	4 µg/mL (≈ 8.39 µM)	> 8 µg/mL	> 8 µg/mL	> 8 µg/mL	> 8 µg/mL
O=S(=O)(N[C@@H]1CCN(Cc2ccc(OC3CCCC3)cc2)C1)c1cccc(C(F)(F)F)c1 [Compound 41]	> 8 µg/mL	8 µg/mL (≈ 17.1 µM)	0.5 µg/mL (≈ 1.07 µM)	> 8 µg/mL	> 8 µg/mL	> 8 µg/mL	> 8 µg/mL	8 µg/mL (≈ 17.1 µM)	~8 µg/mL (≈ 17.1 µM)	> 8 µg/mL	> 8 µg/mL	> 8 µg/mL	–	–	–	–	–	–	–	–
N#Cc1ccc(S(=O)(=O)N[C@@H]2CCN(Cc3ccc(-c4ccccc4)cc3)C2)cn1 [Compound 160]	> 8 µg/mL	> 8 µg/mL	–	–	–	> 8 µg/mL	> 8 µg/mL	–	–	–	–	–	> 8 µg/mL	> 8 µg/mL	> 8 µg/mL	> 8 µg/mL	> 8 µg/mL	> 8 µg/mL	> 8 µg/mL	> 8 µg/mL
CC(C)Oc1ccc(CN2CC[C@@H](NS(=O)(=O)c3ccc(F)c(C#N)c3)C2)cc1 [Compound 165]	> 8 µg/mL	> 8 µg/mL	–	–	–	> 8 µg/mL	> 8 µg/mL	–	–	–	–	–	4 µg/mL (≈ 9.58 µM)	> 8 µg/mL	> 8 µg/mL	> 8 µg/mL	> 8 µg/mL	> 8 µg/mL	> 8 µg/mL	> 8 µg/mL
CC(C)Oc1ccc(CN2CC[C@@H](NS(=O)(=O)c3cc(C(F)(F)F)ccc3F)C2)cc1 [Compound 4]	> 8 µg/mL	> 8 µg/mL	0.5 µg/mL (≈ 1.09 µM)	> 8 µg/mL	> 8 µg/mL	> 8 µg/mL	> 8 µg/mL	> 8 µg/mL	> 8 µg/mL	> 8 µg/mL	> 8 µg/mL	> 8 µg/mL	–	–	–	–	–	–	–	–
O=S(=O)(N[C@@H]1CCN(Cc2ccc(-c3cccs3)cc2)C1)c1cccc(OC(F)(F)F)c1 [Compound 53]	> 8 µg/mL	8 µg/mL (≈ 16.6 µM)	4 µg/mL (≈ 8.29 µM)	> 8 µg/mL	> 8 µg/mL	> 8 µg/mL	> 8 µg/mL	> 8 µg/mL	> 8 µg/mL	> 8 µg/mL	> 8 µg/mL	> 8 µg/mL	–	–	–	–	–	–	–	–
CS(=O)(=O)c1ccc(Cl)c(S(=O)(=O)N[C@@H]2CCN(Cc3ccc(-c4ccccc4)cc3)C2)c1 [Compound 142]	> 8 µg/mL	> 8 µg/mL	–	–	–	> 8 µg/mL	> 8 µg/mL	–	–	–	–	–	2 µg/mL (≈ 3.96 µM)	> 8 µg/mL	> 8 µg/mL	> 8 µg/mL	> 8 µg/mL	> 8 µg/mL	> 8 µg/mL	> 8 µg/mL
CC(C)Oc1ccc(CN2CC[C@@H](NS(=O)(=O)c3ccc4c(c3)CC(=O)N4C)C2)cc1 [Compound 179]	> 8 µg/mL	> 8 µg/mL	–	–	–	> 8 µg/mL	> 8 µg/mL	–	–	–	–	–	> 8 µg/mL	> 8 µg/mL	> 8 µg/mL	> 8 µg/mL	> 8 µg/mL	> 8 µg/mL	> 8 µg/mL	> 8 µg/mL
O=S(=O)(N[C@@H]1CCN(Cc2ccc(-c3cccc(Cl)c3)cc2)C1)c1cccc(C(F)(F)F)c1 [Compound 50]	~8 µg/mL (≈ 16.2 µM)	2 µg/mL (≈ 4.04 µM)	8 µg/mL (≈ 16.2 µM)	> 8 µg/mL	> 8 µg/mL	> 8 µg/mL	> 8 µg/mL	> 8 µg/mL	8 µg/mL (≈ 16.2 µM)	> 8 µg/mL	> 8 µg/mL	> 8 µg/mL	–	–	–	–	–	–	–	–
N#Cc1cccc(S(=O)(=O)N[C@@H]2CCN(Cc3ccc(-c4ccc(Cl)cc4)cc3)C2)c1 [Compound 101]	> 8 µg/mL	8 µg/mL (≈ 17.7 µM)	2 µg/mL (≈ 4.42 µM)	> 8 µg/mL	> 8 µg/mL	> 8 µg/mL	> 8 µg/mL	> 8 µg/mL	~8 µg/mL (≈ 17.7 µM)	> 8 µg/mL	> 8 µg/mL	> 8 µg/mL	–	–	–	–	–	–	–	–
